# According to paper PMC6573034 (Nature Communications, 2019):
# Legend:
# Format in all cases: cell-based
# SfMCT = biological target: T1, SfMCT (Syntrophobacter fumaroxidans, UniProt A0LNN5); assay: Micro pH electrode-based transport assay, SfMCT-expressing E. coli JA202; conditions: 10 mM compound (pH 6.5) added to bacterial suspension pH 6.7
# T1 construct: expressed in transfected cells; host or cells: E. coli JA202 (MC4100 glcA::cat lldP::kan), plasmid pEXT20-SfMCT-3C-10His
# T1 sequence (A0LNN5 1-412): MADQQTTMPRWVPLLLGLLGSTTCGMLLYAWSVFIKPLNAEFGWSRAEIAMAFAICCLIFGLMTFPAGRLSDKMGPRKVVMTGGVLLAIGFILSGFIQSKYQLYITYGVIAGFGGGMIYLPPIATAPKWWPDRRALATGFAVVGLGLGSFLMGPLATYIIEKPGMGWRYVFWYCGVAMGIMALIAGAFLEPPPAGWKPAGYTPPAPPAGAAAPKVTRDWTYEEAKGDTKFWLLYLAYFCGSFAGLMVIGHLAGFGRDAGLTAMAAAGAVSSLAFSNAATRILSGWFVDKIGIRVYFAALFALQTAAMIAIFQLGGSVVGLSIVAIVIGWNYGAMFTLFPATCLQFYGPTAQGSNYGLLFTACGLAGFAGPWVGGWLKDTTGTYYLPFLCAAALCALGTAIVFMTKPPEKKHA
# Procedure: (§1) A measuring set up as previously reported[18] was used for micro pH electrode-based transport measurements. SfMCT was expressed in E. coli JA202 (MC4100 glcA::cat lldP::kan)[15] as described for uptake experiments. After expression, bacteria were pelleted (5,200 × g, 10 min, room temperature), washed twice in assay solution (250 mM KCl, 1 mM MgSO4, 2 mM CaCl2; 5,200 × g, 10 min, room temperature) and finally resuspended in assay solution to a bacterial density of OD600 15. Compounds that were assayed for proton-coupled transport were dissolved in assay solution and the pH was adjusted to 6.5. 800 µl of bacteria suspension were transferred into a 2 ml reaction tube (Eppendorf) and the pH value of the bacterial suspension (extracellular medium) was measured using a micro pH electrode with integrated temperature sensor (InLab Micro Pro, Mettler Toledo) under constant stirring. The pH of the bacterial suspension was adjusted to pH 6.7 using potassium hydroxide and hydrochloric acid. The SevenCompact pH-meter (Mettler Toledo), together with LabX direct pH 2.3 software (Mettler Toledo), were used for automatic recording in 15 s intervals. Measurements were initiated by adding 10 mM of the corresponding compound to the bacterial suspension. All experiments were performed at 24 °C.
# [1] = test system: vector-transformed E. coli JA202; assay: Micro pH electrode-based transport assay, vector-transformed E. coli JA202; conditions: 10 mM compound (pH 6.5) added to vector-transformed bacterial suspension pH 6.7
# Procedure: as §1
# SfMCT R256D = biological target: T2, SfMCT R256D (Syntrophobacter fumaroxidans, UniProt A0LNN5, R256D); assay: [14C]L-lactate in vivo uptake assay, mutant R256D; conditions: R256D versus WT
# T2 construct: expressed in transfected cells; host or cells: E. coli JA202 (MC4100 glcA::cat lldP::kan), plasmid pEXT20-SfMCT-3C-10His
# Procedure: The cultures were grown at 37 °C and 180 r.p.m. in an incubator shaker (Multitron, Infors HT). Protein expression was induced at OD600 ~0.5 by addition of IPTG to a final concentration of 0.25 mM. After 4 h, bacteria were pelleted (5,200 × g, 10 min, room temperature) and resuspended in uptake buffer (20 mM Bis-Tris propane-HCl (pH 6.7), 250 mM KCl) to a bacteria density of OD600 12. […] Furthermore, [3-3 H] propionic acid sodium salt ([^3H]propionate, American Radiolabeled Chemicals, specific activity 30 Ci/mmol), n-[2,3-3 H] butyric acid sodium salt ([^3H]butyrate, American Radiolabeled Chemicals, specific activity 120 Ci/mmol), and [1–14 C] pyruvic acid sodium salt ([^14C]pyruvate, specific activity 0.055 Ci/mmol American Radiolabeled Chemicals) were also used for transport experiments. […] Cpm values of each experiment were normalized with respect to the determined upper plateau value, i.e., the fitted upper plateau value corresponds to 100%. The arithmetic average of three independent experiments was calculated. […] His-tagged transporters were detected using an anti-His5 (Qiagen, catalogue number 34660, primary antibody) at a dilution of 1:3,000 and a goat anti-mouse IgG (H + L) HRP conjugate antibody (Biorad, catalogue number 172-1011, secondary antibody) at a dilution of 1:2,500.
# T2 sequence (A0LNN5 whole entry R256D): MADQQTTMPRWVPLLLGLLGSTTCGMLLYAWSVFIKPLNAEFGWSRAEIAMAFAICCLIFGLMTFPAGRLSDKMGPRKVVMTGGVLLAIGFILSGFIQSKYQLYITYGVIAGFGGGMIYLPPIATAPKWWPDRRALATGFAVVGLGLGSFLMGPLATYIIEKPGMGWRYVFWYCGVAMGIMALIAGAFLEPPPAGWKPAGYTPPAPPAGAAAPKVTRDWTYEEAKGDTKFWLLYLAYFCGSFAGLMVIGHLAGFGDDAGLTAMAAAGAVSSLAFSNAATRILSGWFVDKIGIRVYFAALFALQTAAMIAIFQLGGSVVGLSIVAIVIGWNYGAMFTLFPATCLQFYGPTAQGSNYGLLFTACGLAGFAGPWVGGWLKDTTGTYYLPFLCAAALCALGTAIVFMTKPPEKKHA
smiles,measurement,setting,value
C[C@H](O)C(=O)O [L-lactate],"proton-coupled transport, change of extracellular pH (in words)",SfMCT,immediate pH increase
same,"proton-coupled transport, change of extracellular pH (in words)",[1],significantly slower and lower pH increase
same,increase of [14C]L-lactate transport,SfMCT R256D,~ 2.5 fold
